# Test results as given in PubChem BioAssay AID248 (DTP/NCI, 2004).
# “And” between values parts separate entries of the source, which are not always exact repeats. Equal entries are not always repeated. Inconclusive results and toxic doses are left out.
# Tested on: L1210 leukemia ip in BDF1 mice, survival T/C
# Test: NCI In Vivo Anticancer Drug Screen. Data for tumor model L1210 Leukemia (intraperitoneal) in B6D2F1 (BDF1) mice
# Details: endpoint: mean survival time, higher = longer survival
# Procedure, shortened: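 Value reflects the ratio of survival in compound-treated mice to survival in vehicle-treated controls, with both groups carrying the same transplanted tumor.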
# [1] = dose: 100.0 mg/kg/injection, schedule: Q04DX002 (ip), vehicle: saline
# [2] = dose: 200.0 mg/kg/injection, schedule: Q04DX002 (ip), vehicle: saline
# [3] = dose: 400.0 mg/kg/injection, schedule: Q04DX002 (ip), vehicle: saline
# [4] = dose: 100.0 mg/kg/injection, schedule: Q01DX001 (ip), vehicle: saline
# [5] = dose: 100.0 mg/kg/injection, schedule: Q01DX009 (ip), vehicle: saline
# [6] = dose: 200.0 mg/kg/injection, schedule: Q01DX001 (ip), vehicle: saline
# [7] = dose: 200.0 mg/kg/injection, schedule: Q01DX009 (ip), vehicle: saline
# [8] = dose: 400.0 mg/kg/injection, schedule: Q01DX001 (ip), vehicle: saline
# [9] = dose: 400.0 mg/kg/injection, schedule: Q01DX009 (ip), vehicle: saline
# [10] = dose: 100.0 mg/kg/injection, schedule: Q04DX003 (ip), vehicle: saline with Tween-80
# [11] = dose: 200.0 mg/kg/injection, schedule: Q04DX003 (ip), vehicle: saline with Tween-80
# [12] = dose: 12.5 mg/kg/injection, schedule: Q04DX003 (ip), vehicle: saline
# [13] = dose: 100.0 mg/kg/injection, schedule: Q04DX003 (ip), vehicle: saline
# [14] = dose: 200.0 mg/kg/injection, schedule: Q04DX003 (ip), vehicle: saline
# [15] = dose: 400.0 mg/kg/injection, schedule: Q04DX003 (ip), vehicle: saline
# [16] = dose: 100.0 mg/kg/injection, schedule: Q01DX009 (ip), vehicle: saline with Tween-80
# [17] = dose: 200.0 mg/kg/injection, schedule: Q01DX009 (ip), vehicle: saline with Tween-80
# [18] = dose: 400.0 mg/kg/injection, schedule: Q04DX003 (ip), vehicle: saline with Tween-80
# [19] = dose: 400.0 mg/kg/injection, schedule: Q01DX009 (ip), vehicle: saline with Tween-80
smiles,measurement,setting,value
CC1(C)OC(C(O)CO)C(C2COC(=S)O2)O1 (centres undefined),T/C,[1],107 % of control
same,T/C,[2],104 % of control
same,T/C,[3],100 % of control
C#CCN(C)/N=N/c1nc[nH]c1C(N)=O,T/C,"dose: 50.0 mg/kg/injection, schedule: Q04DX003 (ip), vehicle: Klucel (hydroxypropylcellulose) (HPC)",104 % of control
same,T/C,"dose: 100.0 mg/kg/injection, schedule: Q01DX009 (ip), vehicle: Klucel (hydroxypropylcellulose) (HPC)",157 % of control
same,T/C,"dose: 100.0 mg/kg/injection, schedule: Q04DX003 (ip), vehicle: Klucel (hydroxypropylcellulose) (HPC)",109 % of control and 116 % of control
same,T/C,"dose: 200.0 mg/kg/injection, schedule: Q01DX009 (ip), vehicle: Klucel (hydroxypropylcellulose) (HPC)",118 % of control
same,T/C,"dose: 200.0 mg/kg/injection, schedule: Q04DX003 (ip), vehicle: Klucel (hydroxypropylcellulose) (HPC)",108 % of control
same,T/C,"dose: 400.0 mg/kg/injection, schedule: Q01DX009 (ip), vehicle: Klucel (hydroxypropylcellulose) (HPC)",88 % of control
same,T/C,"dose: 400.0 mg/kg/injection, schedule: Q04DX003 (ip), vehicle: Klucel (hydroxypropylcellulose) (HPC)",117 % of control
C#CCN,T/C,[4],103 % of control
same,T/C,[5],94 % of control
same,T/C,[6],102 % of control
same,T/C,[7],96 % of control
same,T/C,[8],102 % of control
same,T/C,[9],93 % of control
COc1cc(C=Nc2cccc(Cl)c2)ccc1N(CCCl)CCCl,T/C,"dose: 12.5 mg/kg/injection, schedule: Q01DX Z (ip), vehicle: carboxymethylcellulose (CMC)",122 % of control
same,T/C,"dose: 25.0 mg/kg/injection, schedule: Q01DX Z (ip), vehicle: carboxymethylcellulose (CMC)",120 % of control
same,T/C,"dose: 35.0 mg/kg/injection, schedule: Q01DX015 (ip), vehicle: carboxymethylcellulose (CMC)",87 % of control
Cc1ccc(S(=O)(=O)OC[C@H]2CC=CC[C@H]2COS(=O)(=O)c2ccc(C)cc2)cc1,T/C,"dose: 75.0 mg/kg/injection, schedule: Q01DX009 (ip), vehicle: saline with Tween-80",91 % of control
same,T/C,"dose: 100.0 mg/kg/injection, schedule: Q01DX009 (ip), vehicle: DMSO",95 % of control
same,T/C,"dose: 100.0 mg/kg/injection, schedule: Q04DX003 (ip), vehicle: DMSO",86 % of control
same,T/C,[10],88 % of control
same,T/C,"dose: 150.0 mg/kg/injection, schedule: Q01DX009 (ip), vehicle: saline with Tween-80",107 % of control
same,T/C,"dose: 200.0 mg/kg/injection, schedule: Q01DX009 (ip), vehicle: DMSO",101 % of control
same,T/C,"dose: 200.0 mg/kg/injection, schedule: Q04DX003 (ip), vehicle: DMSO",86 % of control
same,T/C,[11],86 % of control
same,T/C,"dose: 300.0 mg/kg/injection, schedule: Q01DX009 (ip), vehicle: saline with Tween-80",101 % of control
same,T/C,"dose: 400.0 mg/kg/injection, schedule: Q04DX003 (ip), vehicle: DMSO",88 % of control
ClC/C=[CH]/[Sn]([c]1ccccc1)([c]1ccccc1)[c]1ccccc1,T/C,"dose: 50.0 mg/kg/injection, schedule: Q01DX009 (ip), vehicle: saline",112 % of control
same,T/C,[5],116 % of control
Nc1ccc(N=Nc2ccc(S(=O)(=O)Nc3ccccn3)cc2)c(N)n1,T/C,[4],96 % of control
same,T/C,[6],102 % of control
same,T/C,[8],105 % of control
CCCCCCCCCCCCCCCCC1CCCC2(CCCC2)C1 (centres undefined),T/C,"dose: 100.0 mg/kg/injection, schedule: Q01DX001 (ip), vehicle: saline with Tween-80",103 % of control
same,T/C,"dose: 200.0 mg/kg/injection, schedule: Q01DX001 (ip), vehicle: saline with Tween-80",92 % of control
same,T/C,"dose: 400.0 mg/kg/injection, schedule: Q01DX001 (ip), vehicle: saline with Tween-80",101 % of control
COc1cc(C)cc(C(=O)O)c1O,T/C,"dose: 200.0 mg/kg/injection, schedule: Q01DX001 (ip), vehicle: carboxymethylcellulose (CMC)",90 % of control
CN(C)P(Cl)(Cc1ccccc1)(c1ccccc1)c1ccccc1,T/C,"dose: 3.12 mg/kg/injection, schedule: Q01DX009 (ip), vehicle: saline",106 % of control
same,T/C,"dose: 6.25 mg/kg/injection, schedule: Q01DX009 (ip), vehicle: saline",105 % of control
same,T/C,[12],106 % of control
Clc1ccc2[nH]c(-c3ccccc3)c(-c3ccccc3)c2c1,T/C,[4],92 % of control
same,T/C,"dose: 100.0 mg/kg/injection, schedule: Q01DX009 (ip), vehicle: acetone",102 % of control
same,T/C,[6],89 % of control
same,T/C,"dose: 200.0 mg/kg/injection, schedule: Q01DX009 (ip), vehicle: acetone",102 % of control
same,T/C,[8],96 % of control
CC(=O)OC1C=COC(C)C1OC(C)=O (centres undefined),T/C,"dose: 50.0 mg/kg/injection, schedule: Q01DX001 (ip), vehicle: saline",105 % of control
same,T/C,[4],97 % of control
same,T/C,[5],109 % of control
same,T/C,[13],102 % of control
same,T/C,[6],100 % of control
same,T/C,[7],93 % of control
same,T/C,[14],91 % of control
same,T/C,[8],105 % of control
same,T/C,[9],102 % of control
same,T/C,[15],96 % of control
Cc1cc(N2C(=O)CSC2=S)ccc1Br,T/C,[16],104 % of control
same,T/C,[10],96 % of control
same,T/C,[17],93 % of control
same,T/C,[11],93 % of control
same,T/C,[18],104 % of control
CC(C)CCCC(C)C1CCC2C3CC4C(F)(F)C45CC4(CCC5(C)C3CCC12C)OCCO4 (centres undefined),T/C,"dose: 100.0 mg/kg/injection, schedule: Q04DX002 (ip), vehicle: other",101 % of control
same,T/C,"dose: 200.0 mg/kg/injection, schedule: Q04DX002 (ip), vehicle: other",90 % of control
same,T/C,"dose: 400.0 mg/kg/injection, schedule: Q04DX002 (ip), vehicle: other",93 % of control
CN(C)[C@@H]1C(=O)C(C(=O)NCNCCCC(=O)O)=C(O)[C@@]2(O)C(=O)C3=C(O)c4c(O)cccc4[C@@](C)(O)[C@H]3C[C@@H]12,T/C,[5],103 % of control
same,T/C,[13],105 % of control
same,T/C,[7],102 % of control
same,T/C,[14],96 % of control
same,T/C,[9],94 % of control
same,T/C,[15],96 % of control
Cc1nc(N)[nH]c(=O)c1CCCNC(=O)c1ccccc1,T/C,"dose: 100.0 mg/kg/injection, schedule: Q01DX001 (ip), vehicle: Klucel (hydroxypropylcellulose) (HPC)",94 % of control
same,T/C,"dose: 200.0 mg/kg/injection, schedule: Q01DX001 (ip), vehicle: Klucel (hydroxypropylcellulose) (HPC)",91 % of control
same,T/C,"dose: 400.0 mg/kg/injection, schedule: Q01DX001 (ip), vehicle: Klucel (hydroxypropylcellulose) (HPC)",87 % of control
C1=C(c2ccccc2)[P+](c2ccccc2)(c2ccccc2)C=C(c2ccccc2)[P+]1(c1ccccc1)c1ccccc1,T/C,"dose: 12.5 mg/kg/injection, schedule: Q01DX009 (ip), vehicle: saline",108 % of control
same,T/C,[12],106 % of control
same,T/C,"dose: 25.0 mg/kg/injection, schedule: Q01DX009 (ip), vehicle: saline",109 % of control
same,T/C,"dose: 25.0 mg/kg/injection, schedule: Q04DX003 (ip), vehicle: saline",109 % of control
same,T/C,"dose: 50.0 mg/kg/injection, schedule: Q04DX003 (ip), vehicle: saline",102 % of control
COc1c(O)cc2c(c1OC)-c1ccc(OC)c(=O)cc1C(NC=O)CC2 (centres undefined),T/C,[10],116 % of control
same,T/C,[11],93 % of control
CN(C)/C=C1\NC(=S)NC1=O,T/C,[16],95 % of control
same,T/C,[17],95 % of control
same,T/C,[19],91 % of control
CCOC(=O)Nc1cc(Cl)c(N)c(NC(=O)OCC)n1,T/C,[16],94 % of control
same,T/C,[10],98 % of control
same,T/C,[17],100 % of control
same,T/C,[11],93 % of control
same,T/C,[19],97 % of control
same,T/C,[18],100 % of control
NC(=S)S.[Zn+2],T/C,"dose: 13.3 mg/kg/injection, schedule: Q01DX Z (ip), vehicle: methylcellulose (MC)",96 % of control
same,T/C,"dose: 20.0 mg/kg/injection, schedule: Q01DX Z (ip), vehicle: methylcellulose (MC)",90 % of control
same,T/C,"dose: 30.0 mg/kg/injection, schedule: Q01DX Z (ip), vehicle: methylcellulose (MC)",90 % of control
C[CH2][Ge]1([CH2]C)[CH2]CC2(C[CH2]1)NC(=O)NC2=O,T/C,[1],103 % of control
same,T/C,[2],100 % of control
same,T/C,[3],96 % of control
N#CC(C#N)=Cc1cc2c3c(c1)CCCN3CCC2,T/C,"dose: 50.0 mg/kg/injection, schedule: Q04DX003 (ip), vehicle: saline with Tween-80",103 % of control
same,T/C,[10],109 % of control
same,T/C,[11],92 % of control
same,T/C,[18],98 % of control
